In patent US11234997B2, “Antibacterial activity of galactooligosaccharide and xylitol in dermatological treatments” (ROTTAPHARM SPA, priority 2017, dated 2022):

Assays:
[1] = tested on: S. epidermidis 317 (clinical strain); test: Planktonic phase growth reduction (OD600); assay type: cell-based, Staphylococcus epidermidis; details: GOS 0%
Method: (§1) Galactooligosaccharide and xylitol were evaluated alone and in combination at different concentrations (concentrations: 0, 1, 2.5 and 5%) to affect bacterial planktonic production and biofilm-forming ability of standardized broth cultures of S. aureus 815 (clinical strain) and S. epidermidis 317 (clinical strain) was assessed. Different concentrations of galactooligosaccharide, xylitol and their combination, were added to a 96 well plate to evaluate their in vitro effect on S. aureus and S. epidermidis bacterial planktonic population. The overnight bacterial inocula were prepared in Tryptic soy broth (TSB), refreshed in the same medium and adjusted to OD600=0.12 (approximately 5×10^6 CFU/ml) for the experiments. For the controls, galactooligosaccharide and xylitol were also assayed alone. The plates were incubated for t=3, and 6 h at 37° C. in aerobic conditions. Each determination was performed in duplicate for three independent experiments and the biomass was evaluated using a safranin staining method. After each time of incubation, the reduction of the OD600 was evaluated in respect to the controls and the colony forming units (CFU)/ml at 0 and 24 h were detected. Table 3 outlines the percentage reduction of S. aureus 815 and S. epidermidis 317 growth in planktonic phase in the presence of galactooligosaccharide, xylitol and their combinations at different concentrations (OD600) after 3 and 6 h.

[2] = tested on: S. aureus 815 (clinical strain); test: Planktonic phase growth reduction (OD600); assay type: cell-based, Staphylococcus aureus; details: GOS 0%
Method: as §1

[3] = tested on: S. epidermidis 317 (clinical strain); test: Biofilm phase reduction (safranin staining, OD492); assay type: cell-based, Staphylococcus epidermidis; details: GOS 0%; for percentage of biofilm reduction (anti-adhesive): 3 h; for percentage of biofilm reduction (anti-biofilm): 24 h
Method: (§2) Galactooligosaccharide and xylitol were evaluated alone and in combination at different concentrations (concentrations: 0, 1, 2.5 and 5%) to affect bacterial planktonic production and biofilm-forming ability of standardized broth cultures of S. aureus 815 (clinical strain) and S. epidermidis 317 (clinical strain) was assessed. Bacterial suspensions grown in TSB supplemented with 0.5% (v/v) glucose at logarithmic phase, were incubated on 96 flat-bottomed microliter plates in the presence of galactooligosaccharide or xylitol or their combination at different concentrations or TSB (control). After incubation for 3 h and 24 h at 37° C., each well was washed twice with sterile PBS, air-dried, stained for 1 min with 0.1% safranin, and washed with PBS. The stained biofilm were re-suspended in 200 μl ethanol (95% v/v), and OD492 was measured by spectrophotometry using an ELISA reader. Table 4 outlines the percentage of biofilm reduction (anti-adhesive (3 h) and anti-biofilm (24 h)) of S. aureus 815 and S. epidermidis 317 in the presence of galactooligosaccharide, xylitol and their combinations at different concentrations.

[4] = tested on: S. aureus 815 (clinical strain); test: Biofilm phase reduction (safranin staining, OD492); assay type: cell-based, Staphylococcus aureus; details: GOS 0%; for percentage of biofilm reduction (anti-adhesive): 3 h; for percentage of biofilm reduction (anti-biofilm): 24 h
Method: as §2

## OC[C@@H](O)[C@H](O)[C@@H](O)CO [Xylitol, xylitol]
[1]; xylitol 1%, 3 h
  percentage reduction of growth in planktonic phase (OD600): 13.40%
[1]; xylitol 1%, 6 h
  percentage reduction of growth in planktonic phase (OD600): 22.11%
[1]; xylitol 2.5%, 3 h
  percentage reduction of growth in planktonic phase (OD600): 19.36%
[1]; xylitol 2.5%, 6 h
  percentage reduction of growth in planktonic phase (OD600): 28.57%
[1]; xylitol 5%, 3 h
  percentage reduction of growth in planktonic phase (OD600): 27.13%
[1]; xylitol 5%, 6 h
  percentage reduction of growth in planktonic phase (OD600): 29.99%
[2]; xylitol 1%, 3 h
  percentage reduction of growth in planktonic phase (OD600): 14.38%
[2]; xylitol 1%, 6 h
  percentage reduction of growth in planktonic phase (OD600): 15.86%
[2]; xylitol 2.5%, 3 h
  percentage reduction of growth in planktonic phase (OD600): 23.93%
[2]; xylitol 2.5%, 6 h
  percentage reduction of growth in planktonic phase (OD600): 27.80%
[2]; xylitol 5%, 3 h
  percentage reduction of growth in planktonic phase (OD600): 26.70%
[2]; xylitol 5%, 6 h
  percentage reduction of growth in planktonic phase (OD600): 35.13%
[3]; xylitol 1%
  percentage of biofilm reduction (anti-adhesive): 1.00%
  percentage of biofilm reduction (anti-biofilm): 22.81%
[3]; xylitol 2.5%
  percentage of biofilm reduction (anti-adhesive): 10.64%
  percentage of biofilm reduction (anti-biofilm): 22.18%
[3]; xylitol 5%
  percentage of biofilm reduction (anti-adhesive): 14.16%
  percentage of biofilm reduction (anti-biofilm): 5.67%
[4]; xylitol 1%
  percentage of biofilm reduction (anti-adhesive): 21.61%
  percentage of biofilm reduction (anti-biofilm): 51.68%
[4]; xylitol 2.5%
  percentage of biofilm reduction (anti-adhesive): 28.81%
  percentage of biofilm reduction (anti-biofilm): 47.8%
[4]; xylitol 5%
  percentage of biofilm reduction (anti-adhesive): 36.98%
  percentage of biofilm reduction (anti-biofilm): 56.02%
